In patent publication US11098044B2, “Imidazopyridinyl compounds and use thereof for treatment of neurodegenerative disorders” (1ST Biotherapeutics, Inc., priority 2019, dated 2021):
Where a name gives a salt, the structure may show the parent alone.

What was measured:
Assay type in all cases: biochemical
[1] = molecular target: c-Abl (His-tagged recombinant human ABL1) (Homo sapiens (Human), UniProt P00519); assay: c-abl Kinase Assay (ADP-Glo); conditions: ATP (25 μM), Abltide substrate
Method in brief: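 His-tagged human ABL1 (0.25 ng/μl), Abltide (0.01 μg/μl) and ATP (25 μM), each at its added concentration, reacted with compound (0.5% DMSO) for 30 min at 30 °C. Buffer was 50 mM HEPES pH 7.5, 10 mM MgCl2, 1 mM EGTA, 0.05% BSA, 0.01% Triton X-100, 2 mM DTT. ADP formed was read by ADP-Glo luminescence, and IC50 was fitted from percent inhibition across concentrations.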

LRRK2 G2019S = LRRK2 G2019S (Homo sapiens (Human), UniProt Q5S007, G2019S); assay: LRRK2 G2019S Kinase Assay (Adapta); conditions: 100 μM ATP, LRRKtide substrate; read-out: LRRK2_G2019S IC50
Chain of LRRK2 G2019S (Q5S007 whole entry G2019S): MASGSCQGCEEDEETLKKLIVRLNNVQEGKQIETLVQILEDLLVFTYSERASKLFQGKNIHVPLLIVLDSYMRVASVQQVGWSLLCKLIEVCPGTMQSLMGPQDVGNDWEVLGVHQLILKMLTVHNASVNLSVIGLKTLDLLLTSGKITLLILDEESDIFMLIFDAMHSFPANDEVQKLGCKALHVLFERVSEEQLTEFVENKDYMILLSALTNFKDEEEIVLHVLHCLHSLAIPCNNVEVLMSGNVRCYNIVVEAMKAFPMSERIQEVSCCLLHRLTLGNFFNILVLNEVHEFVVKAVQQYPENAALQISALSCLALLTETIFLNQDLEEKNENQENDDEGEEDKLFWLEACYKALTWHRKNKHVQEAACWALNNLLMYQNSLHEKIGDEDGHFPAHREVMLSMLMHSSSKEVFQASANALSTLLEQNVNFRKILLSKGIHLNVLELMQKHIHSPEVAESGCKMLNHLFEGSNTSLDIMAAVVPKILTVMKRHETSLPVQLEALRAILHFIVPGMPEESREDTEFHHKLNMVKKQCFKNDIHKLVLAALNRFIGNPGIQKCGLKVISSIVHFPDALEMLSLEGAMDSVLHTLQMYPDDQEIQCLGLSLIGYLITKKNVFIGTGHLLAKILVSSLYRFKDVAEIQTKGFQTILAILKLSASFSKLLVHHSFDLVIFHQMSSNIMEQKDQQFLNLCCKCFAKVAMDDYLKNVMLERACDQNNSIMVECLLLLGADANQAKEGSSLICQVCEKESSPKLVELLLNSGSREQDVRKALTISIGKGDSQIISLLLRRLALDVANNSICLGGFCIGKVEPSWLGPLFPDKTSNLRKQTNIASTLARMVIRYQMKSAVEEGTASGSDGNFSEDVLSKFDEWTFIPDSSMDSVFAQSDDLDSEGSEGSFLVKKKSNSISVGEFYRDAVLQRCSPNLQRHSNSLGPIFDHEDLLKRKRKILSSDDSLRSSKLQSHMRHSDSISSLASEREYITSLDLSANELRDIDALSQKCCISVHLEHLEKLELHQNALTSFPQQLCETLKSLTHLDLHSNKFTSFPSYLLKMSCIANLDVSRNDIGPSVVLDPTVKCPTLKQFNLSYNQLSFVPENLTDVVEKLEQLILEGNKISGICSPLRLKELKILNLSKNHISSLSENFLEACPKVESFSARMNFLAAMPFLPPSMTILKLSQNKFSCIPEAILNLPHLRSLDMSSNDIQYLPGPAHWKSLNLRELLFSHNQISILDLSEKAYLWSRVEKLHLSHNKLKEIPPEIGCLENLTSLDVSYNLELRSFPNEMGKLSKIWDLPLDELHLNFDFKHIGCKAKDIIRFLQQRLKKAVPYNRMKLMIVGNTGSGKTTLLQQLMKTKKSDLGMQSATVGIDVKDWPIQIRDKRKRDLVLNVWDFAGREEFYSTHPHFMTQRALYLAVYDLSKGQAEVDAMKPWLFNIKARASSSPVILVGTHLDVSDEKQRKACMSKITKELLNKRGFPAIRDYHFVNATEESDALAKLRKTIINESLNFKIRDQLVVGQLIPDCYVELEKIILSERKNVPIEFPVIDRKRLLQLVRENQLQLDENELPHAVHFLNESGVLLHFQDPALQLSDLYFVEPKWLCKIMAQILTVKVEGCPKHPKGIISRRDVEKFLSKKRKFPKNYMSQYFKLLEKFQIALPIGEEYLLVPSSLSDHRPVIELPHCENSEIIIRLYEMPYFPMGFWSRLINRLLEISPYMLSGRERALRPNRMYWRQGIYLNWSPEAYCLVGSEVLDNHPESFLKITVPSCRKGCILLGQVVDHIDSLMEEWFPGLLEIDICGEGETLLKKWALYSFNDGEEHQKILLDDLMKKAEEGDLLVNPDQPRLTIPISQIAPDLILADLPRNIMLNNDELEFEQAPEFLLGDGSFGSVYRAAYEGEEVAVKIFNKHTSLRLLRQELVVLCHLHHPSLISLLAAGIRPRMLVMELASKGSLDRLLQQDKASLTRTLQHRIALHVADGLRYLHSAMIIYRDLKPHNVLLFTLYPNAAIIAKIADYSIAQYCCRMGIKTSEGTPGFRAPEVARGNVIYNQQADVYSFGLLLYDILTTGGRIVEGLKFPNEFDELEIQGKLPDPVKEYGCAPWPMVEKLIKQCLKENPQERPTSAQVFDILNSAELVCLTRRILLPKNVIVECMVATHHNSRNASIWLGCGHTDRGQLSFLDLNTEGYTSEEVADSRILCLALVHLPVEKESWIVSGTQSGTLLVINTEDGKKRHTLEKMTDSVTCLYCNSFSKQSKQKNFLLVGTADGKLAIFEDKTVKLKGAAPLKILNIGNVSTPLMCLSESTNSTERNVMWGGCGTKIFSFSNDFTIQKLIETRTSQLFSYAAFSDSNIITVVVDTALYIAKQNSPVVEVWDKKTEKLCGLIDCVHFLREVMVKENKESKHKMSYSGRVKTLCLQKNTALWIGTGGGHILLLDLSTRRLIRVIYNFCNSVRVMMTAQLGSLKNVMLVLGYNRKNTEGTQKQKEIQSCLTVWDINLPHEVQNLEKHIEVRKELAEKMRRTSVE
Method in brief: (§1)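 Adapta TR-FRET kinase assay with LRRKtide substrate in 50 mM Tris pH 8.5, 0.01% BRIJ-35, 10 mM MgCl2, 1 mM EGTA, 0.02% NaN3. ATP at Km: 70 μM for WT LRRK2, 100 μM for G2019S. Reaction 1 h at room temperature; after 60 min with detection mix, 665/615 nm emission ratio read.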

LRRK2 (WT) = LRRK2 (WT) (Homo sapiens (Human), UniProt Q5S007); assay: LRRK2 Kinase Assay (Adapta); conditions: 70 μM ATP, LRRKtide substrate
Chain of LRRK2 (WT) (Q5S007 whole entry): as the sequence (Q5S007 whole entry G2019S) above, with S2019G counted along it
Method in brief: as §1

Chain of c-Abl (His-tagged recombinant human ABL1) (P00519 whole entry): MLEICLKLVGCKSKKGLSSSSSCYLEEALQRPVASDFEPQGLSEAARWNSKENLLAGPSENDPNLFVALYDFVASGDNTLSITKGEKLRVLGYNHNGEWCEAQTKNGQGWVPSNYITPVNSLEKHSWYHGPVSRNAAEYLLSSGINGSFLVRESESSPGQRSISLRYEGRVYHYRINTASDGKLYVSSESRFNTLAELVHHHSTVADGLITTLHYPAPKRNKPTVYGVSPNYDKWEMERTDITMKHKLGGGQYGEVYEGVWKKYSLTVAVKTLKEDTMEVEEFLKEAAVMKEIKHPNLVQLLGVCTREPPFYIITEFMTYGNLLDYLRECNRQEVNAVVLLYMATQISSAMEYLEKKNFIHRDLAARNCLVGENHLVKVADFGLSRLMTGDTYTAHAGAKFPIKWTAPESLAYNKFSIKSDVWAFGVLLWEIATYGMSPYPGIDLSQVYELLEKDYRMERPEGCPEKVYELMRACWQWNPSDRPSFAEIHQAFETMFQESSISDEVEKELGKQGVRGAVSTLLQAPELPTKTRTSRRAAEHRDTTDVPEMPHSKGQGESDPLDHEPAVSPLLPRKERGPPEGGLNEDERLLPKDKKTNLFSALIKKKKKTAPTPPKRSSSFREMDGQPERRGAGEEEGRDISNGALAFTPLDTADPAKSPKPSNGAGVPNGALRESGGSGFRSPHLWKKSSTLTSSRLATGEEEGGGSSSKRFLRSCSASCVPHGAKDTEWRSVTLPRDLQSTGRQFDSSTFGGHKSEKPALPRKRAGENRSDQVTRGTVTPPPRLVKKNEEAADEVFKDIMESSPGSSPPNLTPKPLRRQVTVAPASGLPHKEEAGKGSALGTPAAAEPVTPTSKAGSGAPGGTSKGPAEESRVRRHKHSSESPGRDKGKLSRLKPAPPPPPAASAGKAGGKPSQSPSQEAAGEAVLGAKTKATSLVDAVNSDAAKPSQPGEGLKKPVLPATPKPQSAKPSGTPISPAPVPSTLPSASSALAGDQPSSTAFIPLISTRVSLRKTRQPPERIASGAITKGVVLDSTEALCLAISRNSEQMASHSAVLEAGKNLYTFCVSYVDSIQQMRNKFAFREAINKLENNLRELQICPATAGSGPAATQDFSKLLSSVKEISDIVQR

Row | IC50 [1] [nM] | IC50 (LRRK2 G2019S) [nM] | IC50 (LRRK2 (WT)) [nM] | SMILES
1 | < 10 | 10 to 100 | 101 to 1000 | Cc1cc(F)ccc1-c1ccc2nc(NC(=O)[C@@H]3C[C@@H]3F)cn2c1 [Example 39, (1S,2S)-2-fluoro-N-(6-(4-fluoro-2-methylphenyl)imidazo[1,2-a]pyridin-2-yl)cyclopropane-1-carboxamide]
2 | > 1000 | > 1000 | > 1000 | NCc1c(F)cccc1-c1ccc2nc(NC(=O)[C@@H]3C[C@@H]3F)cn2c1 [Example 74, (1S,2S)—N-(6-(2-(aminomethyl)-3-fluorophenyl)imidazo[1,2-a]pyridin-2-yl)-2-fluorocyclopropanecarboxamide]
3 | < 10 | 10 to 100 | 10 to 100 | O=C(Nc1cn2cc(-c3cccc(F)c3F)ccc2n1)[C@@H]1C[C@@H]1F [Example 62, (1S,2S)—N-(6-(2,3-difluorophenyl)imidazo[1,2-a]pyridin-2-yl)-2-fluorocyclopropanecarboxamide]
4 | > 1000 | > 1000 | > 1000 | CN(C)Cc1c(F)cccc1-c1ccc2nc(NC(=O)[C@@H]3C[C@@H]3F)cn2c1 [Example 84, (1S,2S)—N-(6-(2-((dimethylamino)methyl)-3-fluorophenyl)imidazo[1,2-a]pyridin-2-yl)-2-fluorocyclopropanecarboxamide]
5 | < 10 | 10 to 100 | 10 to 100 | Cc1c(F)cccc1-c1ccc2nc(NC(=O)[C@@H]3C[C@@H]3F)cn2c1 [Example 1, (1S,2S)-2-fluoro-N-(6-(3-fluoro-2-methylphenyl)imidazo[1,2-a]pyridin-2-yl)cyclopropane-1-carboxamide Hydrochloride]
6 | < 10 | 10 to 100 | 101 to 1000 | CSc1c(F)cccc1-c1ccc2nc(NC(=O)[C@@H]3C[C@@H]3F)cn2c1 [Example 66, (1S,2S)-2-fluoro-N-(6-(3-fluoro-2-(methylthio)phenyl)imidazo[1,2-a]pyridin-2-yl)cyclopropanecarboxamide]
7 | < 10 | 10 to 100 | 101 to 1000 | Cc1c(F)ccc(F)c1-c1ccc2nc(NC(=O)[C@@H]3C[C@@H]3F)cn2c1 [Example 45, (1S,2S)—N-(6-(3,6-difluoro-2-methylphenyl)imidazo[1,2-a]pyridin-2-yl)-2-fluorocyclopropane-1-carboxamide]
8 | < 10 | 10 to 100 | 10 to 100 | Cc1c(F)cccc1-c1ccc2nc(NC(=O)[C@@H]3C[C@H]3F)cn2c1 (stereo in doubt) [Example 72, 2-fluoro-N-(6-(3-fluoro-2-methylphenyl)imidazo[1,2-a]pyridin-2-yl)cyclopropanecarboxamide]
9 | 10 to 100 | 10 to 100 | 10 to 100 | N#Cc1c(F)cccc1-c1ccc2nc(NC(=O)[C@@H]3C[C@@H]3F)cn2c1 [Example 60, (1S,2S)—N-(6-(2-cyano-3-fluorophenyl)imidazo[1,2-a]pyridin-2-yl)-2-fluorocyclopropanecarboxamide]
10 | < 10 | 10 to 100 | 101 to 1000 | Cc1c(F)cccc1-c1ccc2nc(NC(=O)[C@H]3C[C@@H]3F)cn2c1 (stereo in doubt) [Example 71, 2-fluoro-N-(6-(3-fluoro-2-methylphenyl)imidazo[1,2-a]pyridin-2-yl)cyclopropanecarboxamide]
11 | < 10 | 10 to 100 | 101 to 1000 | Cc1c(F)cccc1-c1ccc2nc(NC(=O)[C@H]3C[C@H]3F)cn2c1 (stereo in doubt) [Example 73, 2-fluoro-N-(6-(3-fluoro-2-methylphenyl)imidazo[1,2-a]pyridin-2-yl)cyclopropanecarboxamide]
12 | > 1000 | > 1000 | > 1000 | CC(C)NCc1c(F)cccc1-c1ccc2nc(NC(=O)[C@@H]3C[C@@H]3F)cn2c1 [Example 81, (1S,2S)-2-fluoro-N-(6-(3-fluoro-2-((isopropylamino)methyl)phenyl)imidazo[1,2-a]pyridin-2-yl)cyclopropanecarboxamide]

The next lines start with the compound.

Row | SMILES | IC50 [1] [nM] | IC50 (LRRK2 G2019S) [nM] | IC50 (LRRK2 (WT)) [nM]
13 | CNc1ccc(C)c(-c2ccc3nc(NC(=O)[C@@H]4C[C@@H]4F)cn3c2)c1 [Example 24, (1S,2S)-2-fluoro-N-(6-(2-methyl-5-(methylamino)phenyl)imidazo[1,2-a]pyridin-2-yl)cyclopropane-1-carboxamide] | < 10 | 10 to 100 | 101 to 1000
14 | O=C(Nc1cn2cc(-c3cnccc3Cl)ccc2n1)[C@@H]1C[C@@H]1F [Example 21, (1S,2S)—N-(6-(4-chloropyridin-3-yl)imidazo[1,2-a]pyridin-2-yl)-2-fluorocyclopropane-1-carboxamide] | 10 to 100 | 101 to 1000 | 101 to 1000
15 | Cc1ccc(-n2cccn2)cc1-c1ccc2nc(NC(=O)[C@@H]3C[C@@H]3F)cn2c1 [Example 56, (1S,2S)-2-fluoro-N-(6-(2-methyl-5-(1H-pyrazol-1-yl)phenyl)imidazo[1,2-a]pyridin-2-yl)cyclopropane-1-carboxamide] | < 10 | 101 to 1000 | 101 to 1000
16 | Cc1ccncc1-c1ccc2nc(NC(=O)[C@@H]3C[C@@H]3F)c(Cl)n2c1 [Example 7, (1S,2S)—N-(3-chloro-6-(4-methylpyridin-3-yl)imidazo[1,2-a]pyridin-2-yl)-2-fluorocyclopropane-1-carboxamide] | 101 to 1000 | > 1000 | > 1000
17 | Cc1c(F)cccc1-c1ccc2nc(NC(=O)[C@@H]3C[C@@H]3F)c(F)n2c1 [Example 33, (1S,2S)-2-fluoro-N-(3-fluoro-6-(3-fluoro-2-methylphenyl)imidazo[1,2-a]pyridin-2-yl)cyclopropane-1-carboxamide] | < 10 | 101 to 1000 | 101 to 1000
18 | O=C(Nc1cn2cc(-c3ccc4sc(=O)[nH]c4c3)ccc2n1)[C@@H]1C[C@@H]1F [Example 54, (1S,2S)-2-fluoro-N-(6-(2-oxo-2,3-dihydrobenzo[d]thiazol-5-yl)imidazo[1,2-a]pyridin-2-yl)cyclopropane-1-carboxamide] | 10 to 100 | 101 to 1000 | > 1000
19 | Cc1ccc2c(c1-c1ccc3nc(NC(=O)[C@@H]4C[C@@H]4F)cn3c1)CC(=O)N2 [Example 51, (1S,2S)-2-fluoro-N-(6-(5-methyl-2-oxoindolin-4-yl)imidazo[1,2-a]pyridin-2-yl)cyclopropane-1-carboxamide] | < 10 | > 1000 | > 1000
20 | Cc1ccc(Cl)cc1-c1ccc2nc(NC(=O)[C@@H]3C[C@@H]3F)cn2c1 [Example 26, (1S,2S)—N-(6-(5-chloro-2-methylphenyl)imidazo[1,2-a]pyridin-2-yl)-2-fluorocyclopropane-1-carboxamide] | < 10 | 101 to 1000 | 101 to 1000
21 | Cc1ccc(-c2ccc3nc(NC(=O)[C@@H]4C[C@@H]4F)cn3c2)c(C)c1 [Example 32, (1S,2S)—N-(6-(2,4-dimethylphenyl)imidazo[1,2-a]pyridin-2-yl)-2-fluorocyclopropane-1-carboxamide] | < 10 | 101 to 1000 | 101 to 1000
22 | Cc1cc(F)cc(C)c1-c1ccc2nc(NC(=O)[C@@H]3C[C@@H]3F)cn2c1 [Example 38, (1S,2S)-2-fluoro-N-(6-(4-fluoro-2,6-dimethylphenyl)imidazo[1,2-a]pyridin-2-yl)cyclopropane-1-carboxamide] | < 10 | 101 to 1000 | 101 to 1000
23 | Cc1cc(F)c(O)cc1-c1ccc2nc(NC(=O)[C@@H]3C[C@@H]3F)cn2c1 [Example 43, (1S,2S)-2-fluoro-N-(6-(4-fluoro-5-hydroxy-2-methylphenyl)imidazo[1,2-a]pyridin-2-yl)cyclopropane-1-carboxamide] | < 10 | 10 to 100 | 101 to 1000
24 | Cc1cc(N(C)C)ncc1-c1ccc2nc(NC(=O)[C@@H]3C[C@@H]3F)cn2c1 [Example 69, (1S,2S)—N-(6-(6-(dimethylamino)-4-methylpyridin-3-yl)imidazo[1,2-a]pyridin-2-yl)-2-fluorocyclopropanecarboxamide] | 101 to 1000 | > 1000 | > 1000
